This note sets out measurements from patent publication US7271171B2, “Adenosine A3 receptor modulators” (King Pharmaceuticals Research and Development, Inc., priority 1998, dated 2007).

Read-outs that look alike come from different tables or passages of the source.

In assay [1] the target is T1, human recombinant A3 adenosine receptor (Homo sapiens, UniProt P0DMS8).
T1 sequence (P0DMS8 1-318): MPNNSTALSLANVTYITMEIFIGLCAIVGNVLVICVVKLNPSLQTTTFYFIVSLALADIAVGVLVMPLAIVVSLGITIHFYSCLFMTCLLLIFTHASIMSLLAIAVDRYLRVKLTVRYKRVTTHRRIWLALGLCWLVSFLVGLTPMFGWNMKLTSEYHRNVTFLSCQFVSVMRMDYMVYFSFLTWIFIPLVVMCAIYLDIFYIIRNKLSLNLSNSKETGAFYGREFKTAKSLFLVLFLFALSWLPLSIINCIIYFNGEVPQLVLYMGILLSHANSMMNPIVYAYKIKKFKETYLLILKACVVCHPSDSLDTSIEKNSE
Kind of assay: Human cloned A3 adenosine receptor binding assay, [125I]AB-MECA, HEK-293 membranes. Further details: USA; host or cells: HEK-293. Conditions: for Ki: HEK-293 membranes, [125I]AB-MECA, read-out: hA3 (Ki); for rA1/hA3 / rA2A/hA3: selectivity ratio of Ki values.

For another assay, the target named is T2, rA2A adenosine receptor (Rattus norvegicus, UniProt P30543).
T2 construct: membranes of rat striatum (80-100 μmg of protein/assay); from tissue; host or cells: striatum of male Wistar rats
The assay can be described thus: Rat A2A adenosine receptor binding assay, [3H]SCH58261 displacement, rat striatum membranes. Conditions: for Ki: read-out: rA2A (Ki).

Another assay has as its target T3, rA1 adenosine receptor (Rattus norvegicus, UniProt P25099).
T3 construct: membranes of rat brain (150-200 μg- of protein/assay); from tissue; host or cells: whole brain of male Wistar rats
T3 sequence (P25099 1-326): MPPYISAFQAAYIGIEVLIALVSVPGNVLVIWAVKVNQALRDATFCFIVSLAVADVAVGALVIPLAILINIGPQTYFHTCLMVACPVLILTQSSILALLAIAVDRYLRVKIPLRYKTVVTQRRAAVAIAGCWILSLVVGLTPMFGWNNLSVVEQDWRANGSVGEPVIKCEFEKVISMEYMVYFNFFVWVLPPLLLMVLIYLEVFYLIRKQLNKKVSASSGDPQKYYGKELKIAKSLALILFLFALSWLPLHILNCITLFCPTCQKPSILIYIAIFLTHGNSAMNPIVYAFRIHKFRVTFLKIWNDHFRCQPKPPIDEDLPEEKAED
The assay can be described thus: Rat A1 adenosine receptor binding assay, [3H]CHA displacement, rat brain membranes.

Where [2] appears, read: rat striatum membranes, [3H]SCH58261.

T2 sequence (P30543 whole entry): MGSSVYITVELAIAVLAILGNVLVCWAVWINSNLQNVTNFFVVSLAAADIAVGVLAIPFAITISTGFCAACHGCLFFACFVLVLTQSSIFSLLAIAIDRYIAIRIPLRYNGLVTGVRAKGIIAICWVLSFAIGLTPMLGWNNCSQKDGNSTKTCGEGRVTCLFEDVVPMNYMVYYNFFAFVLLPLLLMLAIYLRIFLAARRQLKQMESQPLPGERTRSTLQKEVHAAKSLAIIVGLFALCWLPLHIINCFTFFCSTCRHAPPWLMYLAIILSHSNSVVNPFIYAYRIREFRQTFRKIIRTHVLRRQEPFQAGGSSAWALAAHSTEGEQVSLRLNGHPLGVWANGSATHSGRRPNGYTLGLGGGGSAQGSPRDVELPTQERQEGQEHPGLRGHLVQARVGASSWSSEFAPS
Protocol for rA1 adenosine receptor: (§1) Male Wistar rats (200-250 g) were decapitated and the whole brain and striatum dissected on ice. […] The homogenate was centrifuged at 48,000 for 10 min, and the pellet was resuspended in the same buffer containing 2 IU/mL adenosine deaminase. After 30 min incubation at 37° C., the membranes were centrifuged and pellets were stored at −80° C. Prior to freezing, an aliquot of homogenate was removed for protein assay with bovine albumin as reference standard. Binding assays were performed on rat brain and striatum membranes respectively, in the presence of 10 mM MgCl2 at 25° C.
(§2) Separation of bound from free radio ligand was performed by rapid filtration through Whatman GF/B filters which were washed three times with ice-cold buffer. Filter bound radioactivity was measured by scintillation spectrometry after addition of 5 mL of Aquassure. […] Ki values were calculated from the Cheng-Prusoff equation. All binding data were analyzed using the nonlinear regression curve-fitting computer program LIGAND.
Protocol for rA2A adenosine receptor: as §1, §2

Take `CCCn1cc2c(nc(NC(=O)Nc3cccc(Cl)c3)n3nc(-c4ccco4)nc23)n1` [Compound 46, 5-[[(3-Chlorophenyl)amino]carbonyl]amino-8-propyl-2-(2-furyl)-pyrazolo[4,3-e]1,2,4-triazolo[1,5-c]pyrimidine]: in assay [1], the Ki was 0.49 nM, the rA1/hA3 is listed as 3,228 and the rA2A/hA3 is listed as >20,408. In addition, the Ki on rA2A adenosine receptor (setting [2]) was less than 10000 nM. The same compound registered a Ki at rA1 adenosine receptor of 1580 nM.

Regarding `COc1ccc(NC(=O)Nc2nc3nn(CCCc4ccccc4)cc3c3nc(-c4ccco4)nn23)cc1` [Compound 57, 5-[[(4-Methoxyphenyl)amino]carbonyl]amino-8-(3(phenyl)propyl)-2-(2-furyl)-pyrazolo[4,3-e]1,2,4-triazolo[1,5-c]pyrimidine], the Ki is 19.8 nM in assay [1], more than 10000 nM at rA2A adenosine receptor (setting [2]) and 1510 nM on rA1 adenosine receptor. Moreover, the rA1/hA3 in assay [1] is recorded as 76.4. Further, the rA2A/hA3 in assay [1] is more than 504.

With `CCn1cc2c(nc(N)n3nc(-c4ccco4)nc23)n1` [Compound 35, 5-Amino-8-ethyl-2-(2-furyl)-pyrazolo[4,3-e]1,2,4-triazolo[1,5-c]pyrimidine], in assay [1], the Ki is 3580 nM, the rA1/hA3 is recorded as 0.03 and the rA2A/hA3 came out at 0.003. Further, the Ki at rA2A adenosine receptor (setting [2]) was found to be 11.2 nM. At rA1 adenosine receptor, this compound yielded a Ki of 95.1 nM.

On to `CCCCn1cc2c(nc(N)n3nc(-c4ccco4)nc23)n1` [Compound 37, 5-Amino-8-butyl-2-(2-furyl)-pyrazolo[4,3-e]1,2,4-triazolo[1,5-c]pyrimidine], for which, in assay [1], the Ki turned out to be 1110 nM, the rA1/hA3 is given as 0.02 and the rA2A/hA3 is 0.003. The Ki at rA1 adenosine receptor came out at 26.3 nM.

In the case of `CCn1cc2c(nc(NC(=O)Nc3ccc(OC)cc3)n3nc(-c4ccco4)nc23)n1` [Compound 45, 5-[[(4-Methoxyphenyl)amino]carbonyl]amino-8-ethyl-2-(2-furyl)-pyrazolo[4,3-e]1,2,4-triazolo[1,5-]pyrimidine], in assay [1], the Ki was 0.28 nM, the rA1/hA3 is >35,714 and the rA2A/hA3 was >35,714. Moreover, the “affinity and selectivity for the A3 receptor subtype (in words)” value in assay [1] (discussion of Table 1) is “high affinity and selectivity”.

In the case of `CC(C)=CCn1cc2c(nc(NC(=O)Nc3cccc(Cl)c3)n3nc(-c4ccco4)nc23)n1` [Compound 52], in assay [1], the Ki stood at 147 nM, the rA1/hA3 worked out at 25.4 and the rA2A/hA3 is 9.8. Besides, the Ki at rA2A adenosine receptor (setting [2]) turned out to be 1450 nM. Also, the Ki on rA1 adenosine receptor is 3740 nM.

Turning to `COc1ccc(NC(=O)Nc2nc3nn(CC=C(C)C)cc3c3nc(-c4ccco4)nn23)cc1` [Compound 53, 5-[[(4-Methoxyphenyl)amino]carbonyl]amino-8-(2-isopentenyl)-2-(2-furyl)-pyrazolo[4,3-e]1,2,4-triazolo[1,5-c]pyrimidine], in assay [1], the Ki was found to be 29.6 nM, the rA1/hA3 is recorded as 179 and the rA2A/hA3 was more than 338. In addition, the Ki on rA2A adenosine receptor (setting [2]) was more than 10000 nM. This compound had a Ki at rA1 adenosine receptor of 5300 nM.

With `Cn1cc2c(nc(NC(=O)Nc3cccc(Cl)c3)n3nc(-c4ccco4)nc23)n1` [Compound 42, 5-[[(3-Chlorophenyl)amino]carbonyl]amino-8-methyl-2-(2-furyl)-pyrazolo[4,3-e]1,2,4-triazolo[1,5-c]pyrimidine], the results for the Ki (in assay [1]; on rA2A adenosine receptor (setting [2]); at rA1 adenosine receptor) were 0.22 nM, more than 10000 nM and 5050 nM, respectively. The rA1/hA3 in assay [1] is listed as 22,931. In addition, the rA2A/hA3 in assay [1] is >45,454.

Take `CCn1cc2c(nc(NC(=O)Nc3cccc(Cl)c3)n3nc(-c4ccco4)nc23)n1` [Compound 44, 5-[[(3-Chlorophenyl)amino]carbonyl]amino-8-ethyl-2-(2-furyl)-pyrazolo[4,3-e]1,2,4-triazolo[1,5-c]pyrimidine]: in assay [1], the Ki was determined as 2.09 nM, the rA1/hA3 was 1,291 and the rA2A/hA3 is recorded as 1,339. Besides, at rA2A adenosine receptor (setting [2]), the Ki is 2800 nM. In addition, the Ki at rA1 adenosine receptor stood at 2700 nM.

For the compound `COc1ccc(NC(=O)Nc2nc3nn(C)cc3c3nc(-c4ccco4)nn23)cc1` [Compound 43, 5-[[(4-Methoxyphenyl)amino]carbonyl]amino-8-methyl-2-(2-furyl)-pyrazolo[4,3-e]1,2,4-triazolo[1,5-c]pyrimidine], the figures for the inhibitory constant (Ki) (in assay [1]; at rA2A adenosine receptor (setting [2]); on rA1 adenosine receptor) were 0.1 nM, more than 10000 nM and more than 10000 nM, respectively. Further, the rA1/hA3 in assay [1] is >100,000. In addition, the rA2A/hA3 in assay [1] is listed as >100,000.

As for `CC(C)CCn1cc2c(nc(NC(=O)Nc3cccc(Cl)c3)n3nc(-c4ccco4)nc23)n1` [Compound 50, 5-[[(3-Chlorophenyl)amino]carbonyl]amino-8-isopentyl-2-(2-furyl)-pyrazolo[4,3-e]1,2,4-triazolo[1,5-c]pyrimidine], in assay [1], the Ki was 81.1 nM, the rA1/hA3 worked out at 20 and the rA2A/hA3 was 15. The Ki on rA2A adenosine receptor (setting [2]) came out at 1200 nM. In addition, the Ki on rA1 adenosine receptor stood at 1650 nM.

As for `CCCn1cc2c(nc(NC(=O)Nc3ccc(OC)cc3)n3nc(-c4ccco4)nc23)n1` [Compound 47, 5-[[(4-Methoxyphenyl)amino]carbonyl]amino-8-propyl-2-(2-furyl)-pyrazolo[4,3-e]1,2,4-triazolo[1,5-c]pyrimidine], the Ki at rA1 adenosine receptor is more than 10000 nM.

Consider `O=C(Nc1cccc(Cl)c1)Nc1nc2nn(CCCc3ccccc3)cc2c2nc(-c3ccco3)nn12` [Compound 56, 5-[[(3-Chlorophenyl)amino]carbonyl]amino-8-(3-(phenyl)propyl)-2-(2-furyl)-pyrazolo[4,3-e]1,2,4-triazolo[1,5-c]pyrimidine], for which, in assay [1], the inhibitory constant (Ki) was 42.6 nM, the rA1/hA3 is recorded as more than 234 and the rA2A/hA3 was determined as 75. Further, the inhibition constant (Ki) on rA2A adenosine receptor (setting [2]) is 3200 nM. The same compound showed a Ki on rA1 adenosine receptor of more than 10000 nM.

With `O=C(Cc1ccccc1)Nc1nc2nn(CCCc3ccccc3)cc2c2nc(-c3ccco3)nn12` [Compound 59, 5-[(Benzyl)carbonyl]amino-8-(3-(phenyl)propyl)-2-(2-furyl)-pyrazolo[4,3-e]1,2,4-triazolo[1,5-c]pyrimidine], in assay [1], the inhibition constant (Ki) is 121 nM, the rA1/hA3 is recorded as 2.8 and the rA2A/hA3 was 3.3. On rA2A adenosine receptor (setting [2]), the inhibition constant Ki was found to be 400 nM. The compound also yielded a Ki on rA1 adenosine receptor of 345 nM.

In the case of `Cn1cc2c(nc(N)n3nc(-c4ccco4)nc23)n1` [Compound 34, 5-Amino-8-methyl-2-(2-furyl)-pyrazolo[4,3-e]1,2,4-triazolo[1,5-c]pyrimidine], in assay [1], the Ki is 557 nM, the rA1/hA3 worked out at 0.56 and the rA2A/hA3 amounted to 0.05. Moreover, on rA2A adenosine receptor (setting [2]), the Ki came to 30.6 nM.

As to `CC(C)=CCn1cc2c(nc(N)n3nc(-c4ccco4)nc23)n1` [Compound 39, 5-Amino-8-(2-isopentenyl)-2-(2-furyl)-pyrazolo[4,3-e]1,2,4-triazolo[1,5-c]pyrimidine], in assay [1], the Ki came out at 887 nM, the rA1/hA3 was found to be 0.01 and the rA2A/hA3 came out at 0.001. The Ki at rA2A adenosine receptor (setting [2]) is 1.45 nM. The compound further came in with a Ki on rA1 adenosine receptor of 10.1 nM.

As to `Nc1nc2nn(CCc3ccccc3)cc2c2nc(-c3ccco3)nn12` [Compound 40, 5-Amino-8-(2-(phenyl)ethyl)-2-(2-furyl)-pyrazolo[4,3-e]1,2,4-triazolo[1,5-c]pyrimidine], the Ki in assay [1] is 2780 nM; on rA2A adenosine receptor it was 0.7 nM; at rA1 adenosine receptor, 2.16 nM. Moreover, in assay [1] (discussion of Table 1), the “affinity at human adenosine A3 receptor subtype (in words)” value was “low affinity”. The “affinity for A2A adenosine receptors (in words)” value at rA2A adenosine receptor is “great affinity”.

As for `Nc1nc2nn(CCCc3ccccc3)cc2c2nc(-c3ccco3)nn12` [Compound 41, 5-Amino-8-(3-(phenyl)propyl)-2-(2-furyl)-pyrazolo[4,3-e]1,2,4-triazolo[1,5-c]pyrimidine], the Ki in assay [1] came out at 2670 nM; at rA2A adenosine receptor (setting [2]), 0.59 nM; on rA1 adenosine receptor, 11.1 nM. Besides, the “affinity at human adenosine A3 receptor subtype (in words)” value in assay [1] (discussion of Table 1) is listed as “low affinity”.

Regarding `CC(C)CCn1cc2c(nc(N)n3nc(-c4ccco4)nc23)n1` [Compound 38, 5-Amino-8-isopentyl-2-(2-furyl)-pyrazolo[4,3-e]1,2,4-triazolo[1,5-c]pyrimidine], the Ki in assay [1] came to 1160 nM; at rA1 adenosine receptor it was 8.09 nM. Moreover, in assay [1] (discussion of Table 1), the “affinity at human adenosine A3 receptor subtype (in words)” value is “low affinity”.

As for `COc1ccc(NC(=O)Nc2nc3nn(CCc4ccccc4)cc3c3nc(-c4ccco4)nn23)cc1` [Compound 55, 5-[[(4-Methoxyphenyl)amino]carbonyl]amino-8-(2-(phenyl)ethyl)-2-(2-furyl)-pyrazolo[4,3-e]1,2,4-triazolo[1,5-c]pyrimidine], in assay [1], the Ki was determined as 1.47 nM, the rA1/hA3 is 872 and the rA2A/hA3 turned out to be 951. Moreover, the Ki on rA2A adenosine receptor (setting [2]) worked out at 1400 nM. On rA1 adenosine receptor, this compound gave an inhibitory constant (Ki) of 1280 nM.
